In paper PMC8619914, “Development of Novel Peptides for the Antimicrobial Combination Therapy against Carbapenem-Resistant Acinetobacter baumannii Infection” (Pharmaceutics, 2021):
≈ marks a conversion by molar mass, not a printed value. Where two headings read alike, the source gives them in different places. Where no end group is shown, it is not given here.

Key:
[1] = system: Staphylococcus aureus (KCTC 1621); assay: microbe, parasite or virus in culture
Excerpt: (§1) The Gram-negative bacterial strain Escherichia coli (KCTC 1682) and Gram-positive bacterial strain Staphylococcus aureus (KCTC 1621) were purchased from the Korean Collection for Type Cultures (Jeongeup, Korea). Acinetobacter baumannii (KCCM 40203) were purchased from Korea Culture Center of Microorganisms (Seoul, Korea). Additionally, five carbapenem-resistant Acinetobacter baumanii C1–C5 (CRAB C1–C5), which have the OXA-23 gene with carbapenem-resistance were collected from the patients with CRAB bacteremia, who presented symptoms and signs of infection at Korea University Anam Hospital (Seoul, Korea) (IRB registration no. 2020AN0157). The minimum inhibitory concentrations (MIC) of the AMP and antibiotics against the various bacterial strains were assessed using the serial dilution method on Muller–Hinton (MH) media, as described previously. […] Absorbance at 600 nm was measured using a SpectraMAX microplate reader (Molecular Devices, San Jose, CA, USA).
(§2) Measurement of the minimum inhibitory concentrations (MIC) was conducted to determine the effect of the hydrophobicity of each antimicrobial peptide on its antimicrobial activity. MIC was defined as the minimum concentration that killed more than 99% of bacteria; it was measured against two standard Gram-negative bacteria (E. coli and A. baumanii), five clinically isolated CRAB (C1–C5), and one Gram-positive bacteria (S. aureus).

CRAB C4 [2] = assay: microbe, parasite or virus in culture; settings: 16 h
Excerpt: as §1, §2

CRAB C3 [3] = assay: microbe, parasite or virus in culture; settings: 16 h
Excerpt: as §1, §2

CRAB C5 [4] = assay: microbe, parasite or virus in culture; settings: 16 h
Excerpt: as §1, §2

[5] = system: Escherichia coli (KCTC 1682); assay: microbe, parasite or virus in culture
Excerpt: as §1, §2

[6] = system: Acinetobacter baumannii (KCCM 40203); assay: microbe, parasite or virus in culture
Excerpt: as §1, §2

CRAB C2 [7] = assay: microbe, parasite or virus in culture; settings: 16 h
Excerpt: as §1, §2

CRAB C1 [8] = assay: microbe, parasite or virus in culture; settings: 16 h
Excerpt: as §1, §2

CRAB C1 biofilm = assay: Biofilm inhibition, crystal violet; type: cell-based, carbapenem-resistant Acinetobacter baumannii; settings: Acinetobacter baumannii; 32 μg·mL^−1, CRAB C1, compared to the control; read-out: percentage of biofilm inhibition
Method: CRAB C1 cells (2 × 10^5 CFU·mL^−^1) were incubated with PapMA-3 and antibiotics in a tissue-culture well plate in MH medium containing 0.2% glucose for 16 h at 37 °C. The cells were stained with 0.1% (w/v) crystal violet in 0.25% (v/v) acetic acid for 1 h at room temperature; the dye complex was dissolved with ethanol. Absorbance at 595 nm was measured using SpectraMAX microplate reader (Molecular Devices) to quantify the biofilm formation.
Biofilms were quantified by staining with crystal violet. (A) Absorbance of crystal violet-stained biofilms with treatment of PapMA-3 and antibiotics at a concentration range of 32 to 512 μg·mL^−1, assessed at 595 nm. […] CRAB C1 without peptides or antibiotics served as the control (red). Statistical analysis was performed using two-way ANOVA with Dunnett’s comparison test. The values are expressed as the mean ± SEM of three independent experiments and are statistically significant at ** p < 0.01 and *** p < 0.001. ns, not significant.

[9] = system: Gram-negative bacterial strains; assay: organism not typed
Excerpt: as §1
Geometric means (GM) were calculated to compare the relative antimicrobial activities of the analogs against Gram-negative bacteria. […] Next, the antibacterial mechanisms of peptides were investigated.

CRAB C1 [10] = assay: FE-SEM of membrane damage; type: cell-based, carbapenem-resistant Acinetobacter baumannii; settings: erythromycin 128 μg·mL^−1 alone, 1 h and 2 h
Method: The cells were washed using PBS, fixed in 1% osmium tetroxide for 1 h, and dehydrated using a graded ethanol series. After dehydration, ethanol contents in the sample were replaced with varying ratio (2:1, 1:1, 1:2, 0:1 v/v) of ethanol–isoamyl acetate mixture. The cells were fixed on a glass slide with hexamethyldisilzane, dried under reduced pressure, and platinum-coated; they were visualized using an FE-SEM (SU8020; Hitachi, Tokyo, Japan).
Figure 7 FE-SEM images of CRAB C1 treated with PapMA-3. (A) Only CRAB C1. […] (F–I) same experiments after incubation for 1 h, respectively.

CRAB C4 [11] = assay: microbe, parasite or virus in culture; settings: 16 h; remark: listed apart in the source
Method: (§3) The synergistic effects of AMPs and antibiotics were measured using checkerboard assays. Serial dilutions of PapMA-3 and antibiotics were performed from 1 to […] of the MIC. Samples were then cross-mixed and cultured in MH medium with 2 × 10^5 CFU·ml^−^1 bacteria. Results were recorded after 16 h of incubation at 37 °C. The fractional inhibitory concentration index (FICI) was calculated according to the European Committee on Antimicrobial Susceptibility (EUCAST).
(§4) The ability of PapMA-3 to facilitate these antibiotics in penetrating the bacterial membranes of Gram-negative bacteria was investigated.

CRAB C3 [12] = assay: microbe, parasite or virus in culture; settings: 16 h; remark: listed apart in the source
Method: as §3, §4

CRAB C5 [13] = assay: microbe, parasite or virus in culture; settings: 16 h; remark: listed apart in the source
Method: as §3, §4

CRAB C2 [14] = assay: microbe, parasite or virus in culture; settings: 16 h; remark: listed apart in the source
Method: as §3, §4

CRAB C1 [15] = assay: microbe, parasite or virus in culture; settings: 16 h; remark: listed apart in the source
Method: as §3, §4

HaCaT cells = assay: Cytotoxicity, WST-8 Cell Proliferation Assay; type: cell-based, human; settings: 32 μg·mL^−1, 24 h and 48 h, compared to blank control
Method: (§5) Human embryonic kidney (HEK)-293 cells, purchased from Korean cell line bank (Seoul, Korea) were cultured in Dulbecco’s modified Eagle’s medium (DMEM) (Welgene, Gyeong-san, Korea) with 10% fetal bovine serum, 1% penicillin-streptomycin at 37 °C in a humidified 5% CO2 incubator as described previously. The cytotoxicity of the six PapMA peptides and melittin was determined using WST-8 Cell Proliferation Assay Kit (Biomax Co, Ltd., Seoul, Korea), according to the manufacturer’s instructions. […] The absorbance was measured at 450 nm using a SpectraMAX microplate reader (Molecular Devices).
Figure 10 Cytotoxicity of PapMA-3 (A) Cytotoxicity of PapMA-3 against HEK-293 cells at 24 h and 48 h. (B) Cytotoxicity of PapMA-3 against HaCaT cell at 24 h and 48 h. Statistical analysis was performed using two-way ANOVA with Dunnett’s comparison test. The values are expressed as the mean ± SEM of three independent experiments and are statistically significant at * p < 0.05; *** p < 0.001; ns, not significant.

CRAB C1 [16] = settings: 50% human serum in MH medium, 16 h, 37 °C; measure of serum stability
Method: Antibacterial activity of PapMA-3 in combination with imipenem was measured against CRAB C1 in the presence of 50% human serum. The treated cells were incubated for 16 h at 37 °C, and the absorbance at 600 nm was measured using a SpectraMAX microplate reader (Molecular Devices).

HEK-293 cells = assay: Cytotoxicity, WST-8 Cell Proliferation Assay; type: cell-based, human; settings: 64 μg·mL^−1, 24 h, WST-8
Method: as §5
Figure 4 Cytotoxicity of PapMA analogs. (A) Cytotoxicity of PapMA and its analogs against HEK-293 cell. […] (B) Hemolysis activity of PapMA analogs against sRBC. The peptide was serially diluted and incubated with sRBC for 1 h with melittin as a control. Statistical analysis was performed using two-way ANOVA with Dunnett’s comparison test. The values are expressed as the mean ± SEM of three independent experiments and are statistically significant at ** p < 0.01; and *** p < 0.001. ns, not significant.

[17] = MH media, 2 × 10^5 CFU·mL^−1, 37 °C, absorbance 600 nm
[18] = checkerboard table, single agent, MH medium, 37 °C

Q: `CC[C@H]1OC(=O)[C@H](C)[C@@H](O[C@H]2C[C@@](C)(OC)[C@@H](O)[C@H](C)O2)[C@H](C)[C@@H](O[C@@H]2O[C@H](C)C[C@H](N(C)C)[C@H]2O)[C@](C)(O)C[C@@H](C)C(=O)[C@H](C)[C@@H](O)[C@]1(C)O` [Erythromycin] was tested. Which MIC ([1]; Staphylococcus aureus, KCTC1621, 16 h, read-out: Minimum Inhibitory Concentration, S.aureus) did it give?
A: 0.25 µg/mL (≈ 0.341 µM)

Q: What about the MIC (CRAB C4 [2]; Acinetobacter baumannii, read-out: Minimum Inhibitory Concentration, CRAB C4) of the same molecule?
A: > 512 µg/mL

Q: What about the MIC (CRAB C3 [3]; Acinetobacter baumannii, read-out: Minimum Inhibitory Concentration, CRAB C3) of the same molecule?
A: 512 µg/mL (≈ 698 µM)

Q: What about the MIC (CRAB C5 [4]; Acinetobacter baumannii, read-out: Minimum Inhibitory Concentration, CRAB C5) of the same molecule?
A: > 512 µg/mL

Q: And the MIC ([5]; Escherichia coli, KCTC1682, 16 h, read-out: Minimum Inhibitory Concentration, E. coli)?
A: 16 µg/mL (≈ 21.8 µM)

Q: And the MIC ([6]; Acinetobacter baumannii, KCCM40203, 16 h, read-out: Minimum Inhibitory Concentration, A. baumanii)?
A: 32 µg/mL (≈ 43.6 µM)

Q: And the MIC (CRAB C2 [7]; Acinetobacter baumannii, read-out: Minimum Inhibitory Concentration, CRAB C2)?
A: 512 µg/mL (≈ 698 µM)

Q: What about the MIC (CRAB C1 [8]; Acinetobacter baumannii, read-out: Minimum Inhibitory Concentration, CRAB C1) of the same molecule?
A: > 512 µg/mL

Q: What about the inhibition at 32 µg/mL (CRAB C1 biofilm) of the same molecule?
A: 37.7%

Q: What about the MIC ([9]; read-out: GM (mean MIC of Gram-negative bacterial strains)) of the same molecule?
A: 592 µg/mL

Q: What about the “membrane integrity of CRAB C1 (FE-SEM)” value (CRAB C1 [10]) of the same molecule?
A: not altered

Q: And the MIC (CRAB C4 [11]; Acinetobacter baumannii, read-out: MIC alone, CRAB C4)?
A: > 512 µg/mL

Q: What about the MIC (CRAB C3 [12]; Acinetobacter baumannii, read-out: MIC alone, CRAB C3) of the same molecule?
A: 512 µg/mL

Q: And the MIC (CRAB C5 [13]; Acinetobacter baumannii, read-out: MIC alone, CRAB C5)?
A: > 512 µg/mL

Q: What about the MIC (CRAB C2 [14]; Acinetobacter baumannii, read-out: MIC alone, CRAB C2) of the same molecule?
A: 512 µg/mL

Q: What about the MIC (CRAB C1 [15]; Acinetobacter baumannii, read-out: MIC alone, CRAB C1) of the same molecule?
A: > 512 µg/mL

Q: What does the source list for RWKIFKKIPKFLHSAKKW-NH2 [PapMA-3]?
A: Minimum Inhibitory Concentration, S.aureus ([1]; KCTC 1621, 16 h): 32 µg/mL; Minimum Inhibitory Concentration, CRAB C4 (CRAB C4 [2]; [17]): 32 µg/mL; Minimum Inhibitory Concentration, CRAB C3 (CRAB C3 [3]; [17]): 16 µg/mL; Minimum Inhibitory Concentration, CRAB C5 (CRAB C5 [4]; [17]): 16 µg/mL; Minimum Inhibitory Concentration, E. coli, MH Media ([5]; KCTC 1682, 16 h): 16 µg/mL; Minimum Inhibitory Concentration, E. coli ([5]; MH media, 2 × 10^5 CFU·mL^−1, 37 °C, 16 h, absorbance 600 nm, MIC kills more than 99% of bacteria): 16 µg/mL; Minimum Inhibitory Concentration, A. baumanii ([6]; KCCM 40203, 16 h): 16 µg/mL; Minimum Inhibitory Concentration, A. baumannii, MH Media ([6]; KCCM 40203, 16 h): 16 µg/mL; Minimum Inhibitory Concentration, CRAB C2 (CRAB C2 [7]; [17]): 16 µg/mL; Minimum Inhibitory Concentration, CRAB C1, MH Media (CRAB C1 [8]; MH media without serum, 37 °C): 16 µg/mL; Minimum Inhibitory Concentration, CRAB C1 (CRAB C1 [8]; [17]): 16 µg/mL; cell proliferation and viability, HaCaT (HaCaT cells): remained unaltered; GM (mean MIC of Gram-negative bacterial strains) ([9]; seven Gram-negative strains, 256 assumed for MIC > 128 and 1024 for MIC > 512 μg·mL^−1): 18 µg/mL; Minimum Inhibitory Concentration, CRAB C1, + Serum (50%) (CRAB C1 [16]): 64 µg/mL; survival rate of HEK-293 cells (HEK-293 cells): 100%; MIC alone, CRAB C4 (CRAB C4 [11]; [18]): 32 µg/mL; MIC alone, CRAB C3 (CRAB C3 [12]; [18]): 16 µg/mL; MIC alone, CRAB C5 (CRAB C5 [13]; [18]): 16 µg/mL; MIC alone, CRAB C2 (CRAB C2 [14]; [18]): 16 µg/mL; MIC alone, CRAB C1 (CRAB C1 [15]; [18]): 16 µg/mL
